From paper PMC4279401 (Oncotarget, 2014)
Entries after “also recorded” stand apart in the source; their conditions may differ. Read-outs that look alike come from different tables or passages of the source.

Assays:
H3K79 methylation = assay: Western blot of histone methylation in MDA-MB231; format: cell-based, Human; settings: for effect on H3K79 methylation: in words
Procedure: (§1) Human cell lines BT549, MDA-MB231, MCF-7, MDA-MB157, HCC70, A549 and NB4 were obtained from the American Type Culture Collection (ATCC) and cultured using ATCC recommended conditions. Primary antibodies against H3K79me2, H3K27me3, H3K4me3, H3K36me2, H4K20me3, H3K9me-pan were purchased from Cell Signaling (Danvers, MA). siRNA experiments were performed by transfecting MDA-MB-231 cells with X-tremeGENE Transfection Reagent (Roche) and 10 nM siRNA (Invitrogen), according to the manufacturer's protocol.
(§2) 10^6 cells/well were incubated with increasing concentrations of a compound for 5 days and histones extracted with the EpiQuik™ Total Histone Extraction Kit (Epigentek) according to the manufacturer's protocol. Equal amounts of histones (2μg) were separated on SDS-PAGE and transferred to PVDF membranes. The blots were probed with primary antibodies, followed by anti-rabbit IgG (Thermo Scientific) secondary antibodies. For western blot analysis of MDA-MB231 xenograft tumors, tumors were harvested and frozen in liquid nitrogen. Histones were extracted and analyzed by immunoblotting as described above.

MDA-MB231 [1] = assay: Cell proliferation after DOT1L siRNA; format: cell-based, Human; settings: MDA-MB231, siRNA treatment, in words
Procedure: as §1, with “protocol. The sequences for DOT1L siRNA (Invitrogen) were: • siRNA-1: 634-[…]; • siRNA-2: 117-[…]; • siRNA-3: 104-[…]; • siRNA-4: 470-[…]; • siRNA-5: 120-[…]. • siRNA-`mock represents an siRNA that has no homology to any vertebrate transcriptome.” for “protocol.”

[2] = tested on: methylation at H3K4, H3K9, H3K27, H3K36 and H4K20; assay: Western blot of methylation at other histone lysines in MDA-MB231; format: cell-based, Human; settings: at concentrations of <1 μM, in words
Procedure: as §2

MDA-MB231 [3] = assay: Cell proliferation, MTT assay; format: cell-based; settings: Homo sapiens
H3K27 methylation [4] = assay: Western blot of histone methylation in MDA-MB231; format: cell-based; settings: Homo sapiens, MDA-MB-231, Fig. 4b, read-out: IC50 against H3K27 methylation
Procedure: as §2

[5] = tested on: MDA-MB231, BT549 and MCF-7 breast cancer cells; assay: Cell proliferation, MTT assay, DOT1L+ breast cancer cells; format: cell-based, Human; settings: Homo sapiens
BT549 = assay: Cell proliferation, MTT assay; format: cell-based; settings: Homo sapiens
MCF-7 = assay: Cell proliferation, MTT assay; format: cell-based; settings: Homo sapiens
EZH2 = settings: read-out: Ki against EZH2; cited from earlier work
H3K27 methylation [6] = assay: Western blot of histone methylation in BT549; format: cell-based, Human
Procedure: as §2

siRNA-2: DOT1L siRNA (Invitrogen): 117-CGAUAAACAUCACGAUGCUGCUCAU (other strand not given here)
effect on H3K79 methylation (H3K79 methylation): considerably weaker inhibition | effect on cell proliferation (MDA-MB231 [1]): did not significantly affect the growth

Nc1nccc2c1ncn2C1C=C(CO)C(O)C1O (centres unmarked) [Compound 4, 3-deazaneplanocin A]
inhibitory activity against methylation at H3K4, H3K9, H3K27, H3K36 and H4K20 [2]: no or negligible inhibitory activities; also recorded: negligible effects | EC50 (MDA-MB231 [3]; MDA-MB-231, 72 h, read-out: Anti-proliferative activity EC50): > 20 µM | EC50 (MDA-MB231 [3]; MDA-MB-231, 360 h, read-out: EC50, 15-day treatment): 0.035 µM | IC50 (H3K27 methylation [4]): > 6 µM | EC50 ([5]; 72 h, read-out: EC50, 3-day treatment): > 20 µM | EC50 ([5]; 360 h, read-out: anti-proliferation EC50): 0.035 to 0.48 µM | EC50 (BT549; BT-549, 72 h, read-out: Anti-proliferative activity EC50): > 20 µM | EC50 (BT549; BT-549, 360 h, read-out: EC50, 15-day treatment): 0.065 µM | IC50 (H3K79 methylation; Homo sapiens, MDA-MB-231, read-out: IC50 of H3K79 methylation inhibition): ~0.05 µM | EC50 (MCF-7; MCF7, 72 h, read-out: Anti-proliferative activity EC50): > 20 µM | EC50 (MCF-7; MCF7, 360 h, read-out: EC50, 15-day treatment): 0.48 µM

siRNA-3: DOT1L siRNA (Invitrogen): 104-CGCUGCCGGUCUACGAUAAACAUCA (other strand not given here)
effect on H3K79 methylation (H3K79 methylation): considerably weaker inhibition | effect on cell proliferation (MDA-MB231 [1]): did not significantly affect the growth

Cc1cc(C)c(CNC(=O)c2cc(-c3ccc(CN4CCOCC4)cc3)cc3c2cnn3C2CCCC2)c(=O)[nH]1 [Compound 5, EPZ005687]
EC50 (MDA-MB231 [3]; MDA-MB-231, 72 h, MDA-MB231, 3-day treatment, read-out: Anti-proliferative activity EC50): 11 µM | EC50 (MDA-MB231 [3]; MDA-MB-231, 360 h, MDA-MB231, 15-day treatment, read-out: Anti-proliferative activity EC50): 13 µM | EC50 ([5]; three breast cancer cells, regardless of the treatment durations, read-out: anti-proliferation EC50): 11 to 35 µM | Ki (EZH2): 0.024 µM | EC50 (BT549; BT-549, 72 h, BT549, 3-day treatment, read-out: Anti-proliferative activity EC50): 34 µM | EC50 (BT549; BT-549, 360 h, BT549, 15-day treatment, read-out: Anti-proliferative activity EC50): 35 µM | EC50 (MCF-7; MCF7, 72 h, MCF-7, 3-day treatment, read-out: Anti-proliferative activity EC50): 28 µM | EC50 (MCF-7; MCF7, 360 h, MCF-7, 15-day treatment, read-out: Anti-proliferative activity EC50): 12 µM | selectivity of histone methylation inhibition (H3K27 methylation [6]; BT549, Western blot, in words): only inhibited H3K27 methylation | IC50 (H3K27 methylation [6]; Homo sapiens, BT-549, 5 days, breast cancer cells, Fig. 4d (BT549), read-out: IC50 of H3K27 methylation inhibition): ~0.05 µM

siRNA-4: DOT1L siRNA (Invitrogen): 470-CCCAGAUGAUUGAUGAGAUCAAGAU (other strand not given here)
effect on H3K79 methylation (H3K79 methylation): significantly reduced H3K79 methylation | effect on cell proliferation (MDA-MB231 [1]): inhibited cell proliferation

siRNA-1: DOT1L siRNA (Invitrogen): 634-CGCGAGUUCAGGAAGUGGAUGAAAU (other strand not given here)
effect on H3K79 methylation (H3K79 methylation): significantly reduced H3K79 methylation | effect on cell proliferation (MDA-MB231 [1]): slowed down cell proliferation; also recorded: significantly inhibited cell proliferation
